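Tested at 5 concentrations; 48 h exposure; 96-well plates; endpoints linearly interpolated, else capped at highest concentration. GI50 = concentration required for 50% inhibition of growth. TGI: total growth inhibition.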 Where a SMILES comes first, the peptide text is derived from it. The star is where a group is joined. Palmitoyl = CCCCCCCCCCCCCCCC(=O)*
Legend:
Experiment in all cases: growth of human tumour cells (NCI), 48 h
MDA-MB-435 = system: MDA-MB-435
MDA-MB-231 breast = system: MDA-MB-231 breast
PC-3 prostate = system: PC-3 prostate
SR leukemia = system: SR leukemia
MDA-N = system: MDA-N
DU-145 prostate = system: DU-145 prostate
OVCAR-8 ovarian = system: OVCAR-8 ovarian
T-47D breast = system: T-47D breast
HCT-116 colon = system: HCT-116 colon
RPMI-8226 leukemia = system: RPMI-8226 leukemia
NCI-H226 lung = system: NCI-H226 lung

Compound | TGI (MDA-MB-435) | TGI (MDA-MB-231 breast) | TGI (PC-3 prostate) | TGI (SR leukemia) | TGI (MDA-N) | TGI (DU-145 prostate) | TGI (OVCAR-8 ovarian) | TGI (T-47D breast) | TGI (HCT-116 colon) | TGI (RPMI-8226 leukemia) | TGI (NCI-H226 lung) | GI50 (DU-145 prostate) | GI50 (T-47D breast) | GI50 (NCI-H226 lung) | GI50 (MDA-MB-435) | GI50 (MDA-MB-231 breast) | GI50 (SR leukemia) | GI50 (OVCAR-8 ovarian) | GI50 (HCT-116 colon) | GI50 (RPMI-8226 leukemia)
CC12C=CC(=O)C=C1CCC1C3CCC(O)(C(=O)CO)C3(C)CC(O)C12F (stereo not given) | > 100 µM | > 100 µM | > 100 µM | > 100 µM | > 100 µM | > 100 µM | > 100 µM | > 100 µM | > 100 µM | > 100 µM | > 100 µM | – | – | – | – | – | – | – | – | –
CON(C)c1nc(N(C)OC)nc(N(C)OC)n1 | > 10 µM | > 10 µM | > 10 µM | > 10 µM | > 10 µM | > 10 µM | > 10 µM | > 10 µM | > 10 µM | > 10 µM | > 10 µM | – | – | – | – | – | – | – | – | –
Nc1nc(O)c2ncn([C@H]3CC[C@@H](CO)O3)c2n1 | > 100 µM | – | > 100 µM | > 100 µM | > 100 µM | > 100 µM | > 100 µM | > 100 µM | > 100 µM | > 100 µM | > 100 µM | – | – | – | – | – | – | – | – | –
CN1C(c2ccccc2)CC(=O)C(N)C1c1ccccc1 (stereo not given) | – | – | – | > 60.2 µM | – | – | > 81.2 µM | – | 34.2 µM | 44.1 µM | > 100 µM | – | – | – | – | – | – | – | – | –
Cn1c(-c2ccccc2)cc(-c2cccs2)c1-c1cccs1 | – | – | – | – | – | – | > 100 µM | – | > 100 µM | > 100 µM | > 100 µM | – | – | – | – | – | – | – | – | –
Cc1cc(C)nc(NS(=O)(=O)c2ccc(NC(=O)c3cccc4c(Nc5ccc(S(=O)(=O)Nc6cc(C)on6)cc5)c5ccccc5nc34)cc2)n1 | – | – | – | 80.3 µM | – | – | – | – | 84 µM | – | – | – | – | – | – | – | – | – | – | –
CCN1CCC(O)(/C=C/c2ccccc2C)C(C(=O)/C=C/c2ccccc2C)C1 (stereo not given) | 7.04 µM | 7.11 µM | 4.05 µM | > 100 µM | 8.88 µM | 4.05 µM | 7.85 µM | 4.32 µM | 3.38 µM | – | – | – | – | – | – | – | – | – | – | –
COC(=O)C1=C(OC(=O)/C(=C/c2ccc(Cl)cc2)c2ccc(Cl)cc2)C(C(=O)OC)[C@]2(O)[C@@H](C(=O)OC)[C@H]1C[C@@H](c1ccccc1)[C@@H]2C(=O)OC (stereo not given in full) | > 100 µM | > 100 µM | > 100 µM | – | > 100 µM | > 100 µM | > 100 µM | > 100 µM | > 100 µM | – | > 100 µM | – | – | – | – | – | – | – | – | –
O[C@@]12Cc3c([nH]c4ccccc34)[C@@H]3Oc4cccc5c4[C@@]31CCN(CC1CC1)[C@@H]2C5 | 29.2 µM | 40.4 µM | 30.7 µM | > 100 µM | 33.9 µM | 45.2 µM | 29 µM | – | – | 41.2 µM | – | – | – | – | – | – | – | – | – | –
C/C(=N/N=C(\[O-])c1ccncc1)C(F)(F)F.C/C(=N\N=C(/[O-])c1ccncc1)C(F)(F)F.[Ni+2] | – | – | – | – | – | > 1 µM | – | > 1 µM | – | – | > 1 µM | > 1 µM | > 1 µM | > 1 µM | – | – | – | – | – | –
CCCCCCCCCCCCCCCC(=O)N1CCCC1C(=O)NCC(=O)NC(Cc1ccccc1)C(=O)NC(C)C(=O)NC(CO)C(=O)NC(Cc1ccc(O)cc1)C(=O)NC(CCCCN)C(=O)NC(CC(C)C)C(=O)NC(CCCN=C(N)N)C(=O)N1CCCC1C(=O)NCC(N)=O (stereo not given) (Palmitoyl-PGFASYKLRPG-NH2; configuration not given here) | 54.5 µM | 26.5 µM | – | 24.5 µM | – | 43.6 µM | 51.9 µM | 39.6 µM | 24.9 µM | 16.4 µM | 35.6 µM | 15.7 µM | 17.4 µM | 15.9 µM | 14 µM | 12.5 µM | 12 µM | 24 µM | 12.1 µM | 4.36 µM
C=C(C)C1Cc2c(c3ccccc3n(C)c2=O)O1 (stereo not given) | – | – | – | – | – | – | > 100 µM | – | – | > 100 µM | > 100 µM | – | – | – | – | – | – | – | – | –
c1ccc(-c2nc(N3CCNCC3)c3oc(-c4ccccc4)nc3n2)cc1 | 3.12 µM | 3.28 µM | – | 0.793 µM | – | 3.33 µM | – | 4.95 µM | – | 5.16 µM | 5.05 µM | 1.88 µM | 2.1 µM | 2.11 µM | 1.65 µM | 1.76 µM | 0.259 µM | – | – | 2.03 µM
CC(C)C(C(=O)O)N1C(=O)c2ccccc2C1=O (stereo not given) | > 100 µM | > 100 µM | > 100 µM | – | > 100 µM | > 100 µM | > 100 µM | > 100 µM | > 100 µM | > 100 µM | > 100 µM | – | – | – | – | – | – | – | – | –
